Experimental data: patent publication US20250270212A1, “CHIMERIC COMPOUNDS USEFUL IN TREATING DISEASES” (Padarn Therapeutics, Inc., priority 2021, published 2025)
Like-named read-outs stand apart in the source and are kept apart here.

How the values were obtained:
recombinant Wee1 protein = recombinant Wee1 protein (Homo sapiens (Human), UniProt P30291); test: Wee1 enzymatic activity inhibition, ADP-Glo luminescence assay; assay type: biochemical; details: recombinant Wee1, PolyE4Y1 substrate, 1 h room temperature
Sequence of recombinant Wee1 protein (P30291 whole entry): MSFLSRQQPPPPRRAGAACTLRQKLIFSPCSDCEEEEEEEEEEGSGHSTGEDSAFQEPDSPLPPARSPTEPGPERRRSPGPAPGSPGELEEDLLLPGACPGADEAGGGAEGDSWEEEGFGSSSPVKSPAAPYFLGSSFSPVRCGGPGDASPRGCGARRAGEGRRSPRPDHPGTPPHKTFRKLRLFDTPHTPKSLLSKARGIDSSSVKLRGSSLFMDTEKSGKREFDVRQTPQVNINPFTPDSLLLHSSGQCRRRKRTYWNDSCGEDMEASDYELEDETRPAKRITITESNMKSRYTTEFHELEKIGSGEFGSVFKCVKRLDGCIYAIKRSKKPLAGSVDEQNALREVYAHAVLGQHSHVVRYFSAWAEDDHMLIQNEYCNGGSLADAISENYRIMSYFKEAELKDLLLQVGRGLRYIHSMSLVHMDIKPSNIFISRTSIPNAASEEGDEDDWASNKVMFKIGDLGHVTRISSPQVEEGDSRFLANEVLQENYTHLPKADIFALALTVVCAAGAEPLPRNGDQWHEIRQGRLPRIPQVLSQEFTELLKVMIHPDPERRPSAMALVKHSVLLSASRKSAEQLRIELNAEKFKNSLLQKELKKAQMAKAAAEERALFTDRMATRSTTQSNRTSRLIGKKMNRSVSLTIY
Experimental: Example A. Primary Assay Used to Determine Potency of Wee1 Enzymatic Activity Inhibition
Compound activity was determined using recombinant Wee1 protein (BPS, Cat #40412) and PolyE4Y1 Substrate (Poly(Glu,Tyr) sodium salt, Sigma, Cat #P0275-25MG) in an in vitro enzymatic reaction. The enzymatic assay used to determine activity was a Luminescence assay using a Microplate Reader (BMG, ClarioStar Plus). The enzymatic reaction was carried out in assay buffer (40 mM TRIS-HCl pH 7.4-7.6, 20 mM MgCl2, 0.05 mM DTT, 0.1 mg/ml BSA, 5 mM MnCl2). The compounds were dispensed on a 384 well Diamond Well Plate (Axigen, Cat #P-384-120SQ-C-S) using the Biomek FX liquid handling system at 100× solutions of compounds in DMSO. 2×Wee1-PolyE4Y1 mix (final concentration 0.85 ng/μl of Wee1 and 0.2 μg/μl of PolyE4Y1) was prepared in 1× Assay buffer and 5.5 μl of mixture per well was added into 384w white Reaction plate with NBS (Corning, Cat #4513). 5.5 μl of PolyE4Y1 substrate w/o Wee1 in 1× buffer was used for negative control. Plates were centrifuged for 1 min at 100 g. Next step the Compounds were added to Reaction plate using Biomek station via following steps: 1 μl of 100× compounds (in DMSO) were mixed thoroughly with 49 μl of 2×10 μM ATP in Assay Buffer, then 5.5 μl of this mixture was added to Reaction plate with 5.5 μl of Wee1-PolyE4Y1 mix. Plates were centrifuged for 1 min at 100 g and incubated for 1 h at room temperature. Next 3 μL of ADP-Glo reagent (Promega, ADP-Glo™ Kinase Assay, Cat #V9102) per well was added. Plates were incubated for 30 minutes at room temperature. Then 6 μL of Kinase detection reagent (Promega, ADP-Glo™ Kinase Assay, Cat #V9102) per well was added and the Luminescence was measured using Microplate Reader. The % inhibition was then used to calculate the IC50 values. The IC50 values are shown in Table A, wherein “A” corresponds to IC50<0.01 μM, “B” corresponds to 0.01 μM≤IC50<0.1 μM, “C” 0.1 μM≤IC50<1 μM, and “D” corresponds to […].

[1] = biological target: recombinant PARP1 (AA662-1014) protein (Homo sapiens (Human), UniProt P09874); test: Tracer displacement fluorescence polarization assay; details: displacement of AlexaFluor488 tracer from NAD+-binding site, PARP1 25 nM
Sequence of recombinant PARP1 (AA662-1014) protein (P09874 662-1014): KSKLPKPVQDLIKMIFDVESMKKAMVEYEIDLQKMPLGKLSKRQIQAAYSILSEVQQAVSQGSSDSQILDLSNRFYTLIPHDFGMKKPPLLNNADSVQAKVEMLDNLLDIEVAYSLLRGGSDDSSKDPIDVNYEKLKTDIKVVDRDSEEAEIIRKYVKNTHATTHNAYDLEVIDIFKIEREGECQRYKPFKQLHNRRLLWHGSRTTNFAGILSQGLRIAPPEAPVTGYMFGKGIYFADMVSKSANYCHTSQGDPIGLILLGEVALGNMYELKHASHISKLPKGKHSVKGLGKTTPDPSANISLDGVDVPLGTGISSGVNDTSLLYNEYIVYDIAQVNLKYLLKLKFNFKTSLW
Experimental: Example B. Tracer Displacement Fluorescence Polarization Assays
Displacement of AlexaFlour488 marked tracer from the NAD+-binding site of recombinant PARP1 (AA662-1014) protein (OriGene, Cat #: AR09368PU-L) was measured in vitro using Fluorescence polarization assay. The reaction was carried out in assay buffer (50 mM TRIS-HCl pH 7.4-7.8, 150 mM NaCl, 10 mM MgCl2, 0.001% Triton-X). 2×PARP1 (final concentration 25 nM) was diluted in 1× Assay buffer and 10 μl of the solution per well was added into 384-well Black Non-Treated Reaction plate (Corning, Cat #4511). Plates were centrifuged for 1 min at 200 g. The compounds were prepared in a 384-well Diamond Well Plate (Axygen, Cat #P-384-120SQ-C-S) as 400× solutions in DMSO and were transferred into Reaction plate using the Biomek FX liquid handling system with intermediate dilution down to 10× working solution in assay buffer in a separate 384-well Diamond Well Plate (Axygen, Cat #P-384-120SQ-C-S) (2 μl per well). Plates were centrifuged for 1 min at 200 g and incubated for 15 min at room temperature in the dark. Then 8 μL per well of 2.5× Tracer AlexaFluor488 (final concentration 1 nM) diluted in 1× Assay buffer was added into Reaction plate. 1× Assay buffer was used to make blank samples for instrument calculations. Plates were incubated for 30 minutes at room temperature in the dark. Fluorescence polarization was measured using Microplate Reader (BMG, ClarioStar Plus). The % tracer displacement was used to calculate the IC50 values. The IC50 values are shown in Table A, wherein “A” corresponds to IC50<0.01 μM, “B” corresponds to 0.01 μM≤IC50<0.1 μM, “C” 0.1 μM≤IC50<[…], and “D” corresponds to […].

MDA-MB-231 = test: Cellular growth inhibition assay (CellTiter-Glo); assay type: cell-based; details: Homo sapiens
Experimental: Example E. Cellular Growth Inhibition Assay
HEK293 (Institute of Cytology Russian Academy of Science), MDA-MB-231 (ATCC, CRM-HTB-26), HCC1395 (ATCC, CRL-2324), HCC1937 (ATCC, CRL-2336), UWB1.289+BRCA1 (ATCC, CRL-2946) were seeded at a density of 500 cells per well in a 384-well clear bottom plate (Greiner Cat #781090) in 45 μl total volume of DMEM (PanEco, Cat #C420) or RPMI (PanEco, Cat #C330) or RPMI/MEBM (Lonza, Cat #CC-3151+CC-4136) with 10% FBS (HyClone, Cat #SV30160.03). Cells were allowed to adhere overnight at 370 C, 5% CO2. 500× compounds solutions in DMSO (Sigma Cat #D2650) were prepared into Cmpnds plate (Diamond Well Plate, Axigen, Cat #P-384-120SQ-C-S) and DMSO only control was included. 1 μl of 500× compounds (Cmpnds plate) was added to 49 μl of culture medium into Dilution plate (Diamond Well Plate, Axigen, Cat #P-384-120SQ-C-S), mixed and then 5 μl of 10× compounds solutions were transferred to cells followed by centrifugation at 100 g for 1 min. Final DMSO concentration was 0.2%. After 3 days of incubation, 10 μl of 1× compounds were added to cells. […]

[2] = 120 h, MDA-MB-231, 5 days, read-out: MDA-MB-231 EC50 (μM) 5 days
[3] = 168 h, MDA-MB-231, 7 days, read-out: MDA-MB-231 EC50 (μM) 7 days
[4] = 240 h, MDA-MB-231, 10 days, read-out: MDA-MB-231 EC50 (μM) 10 days

Row | Compound | EC50 (recombinant Wee1 protein) [µM] | EC50 [1] [µM] | EC50 (MDA-MB-231; [2]) [µM] | EC50 (MDA-MB-231; [3]) [µM] | EC50 (MDA-MB-231; [4]) [µM]
1 | Cn1c(=O)c2cnc(Nc3ccc(N4CCN(C(=O)c5cc(Cn6c(=O)[nH]c(=O)c7c(F)cccc76)ccc5F)CC4)cc3)nc2n1-c1ccccn1 [Compound 18, 5-Fluoro-1-{4-fluoro-3-[(4-{4-[(2-methyl-3-oxo-1-pyridin-2-yl-2,3-dihydro-1H-pyrazolo[3,4-d]pyrimidin-6-yl)amino]phenyl}piperazin-1-yl)carbonyl]benzyl}quinazoline-2,4(1H,3H)-dione] | 0.01 to 0.1 | < 0.01 | > 10 |  | 
2 | Cn1c(=O)c2cnc(Nc3ccc(N4CCN(C(=O)c5cc(Cc6n[nH]c(=O)c7ccccc67)ccc5F)CC4)cc3)nc2n1-c1ccccn1 [Compound 3, 4-{4-Fluoro-3-[(4-{4-[(2-methyl-3-oxo-1-pyridin-2-yl-2,3-dihydro-1H-pyrazolo[3,4-d]pyrimidin-6-yl)amino]phenyl}piperazin-1-yl)carbonyl]benzyl}phthalazin-1(2H)-one] | 0.1 to 1 | < 0.01 | 3.75 |  | 
3 | Cn1c(=O)c2cnc(Nc3ccc(NC(=O)c4cc(Cn5c(=O)[nH]c(=O)c6c(F)cccc65)ccc4F)cc3)nc2n1-c1ccccn1 [Compound 33, 2-Fluoro-5-[(5-fluoro-2,4-dioxo-3,4-dihydroquinazolin-1(2H)-yl)methyl]-N-{4-[(2-methyl-3-oxo-1-pyridin-2-yl-2,3-dihydro-1H-pyrazolo[3,4-d]pyrimidin-6-yl)amino]phenyl}benzamide] | 0.1 to 1 | ≥ 0.001 | > 10 |  | 
4 | C=CCn1c(=O)c2cnc(Nc3ccc(N4CCN(Cc5ccc(-c6[nH]c7cc(F)cc8c7c6CCNC8=O)cc5)CC4)cc3)nc2n1-c1cccc(C(C)(C)O)n1 [Compound 35, 2-[4-({4-[4-({2-Allyl-1-[6-(1-hydroxy-1-methylethyl)pyridin-2-yl]-3-oxo-2,3-dihydro-1H-pyrazolo[3,4-d]pyrimidin-6-yl}amino)phenyl]piperazin-1-yl}methyl)phenyl]-8-fluoro-1,3,4,5-tetrahydro-6H-azepino[5,4,3-cd]indol-6-one] | 0.01 to 0.1 | 0.01 to 0.1 | 0.98 | 0.57 | 0.08
5 | Cn1c(=O)c2cnc(Nc3ccc(N4CCN(C(=O)c5cc(Cc6n[nH]c(=O)c7ccccc67)ccc5F)CC4)cc3)nc2n1-c1ncccn1 [Compound 11, 4-{4-Fluoro-3-[(4-{4-[(2-methyl-3-oxo-1-pyrimidin-2-yl-2,3-dihydro-1H-pyrazolo[3,4-d]pyrimidin-6-yl)amino]phenyl}piperazin-1-yl)carbonyl]benzyl}phthalazin-1(2H)-one] | 0.01 to 0.1 | < 0.01 | 8.76 | 6.28 | 3.6
